Assay results reported in BigSolDB 2.1.

Structure (SMILES): C=C1CCN([C@H](C)[C@](O)(Cn2cncn2)c2ccc(F)cc2F)CC1
- solubility (mole fraction) (in DMF, 288.15 K): 0.281
- solubility (mole fraction) (in DMF, 293.15 K): 0.298
- solubility (mole fraction) (in DMF, 298.15 K): 0.316
- solubility (mole fraction) (in DMF, 303.15 K): 0.334
- solubility (mole fraction) (in DMF, 308.15 K): 0.353
- solubility (mole fraction) (in PEG-400, 288.15 K): 0.171
- solubility (mole fraction) (in PEG-400, 293.15 K): 0.182
- solubility (mole fraction) (in PEG-400, 298.15 K): 0.194
- solubility (mole fraction) (in PEG-400, 303.15 K): 0.206
- solubility (mole fraction) (in PEG-400, 308.15 K): 0.219
- solubility (mole fraction) (in THF, 288.15 K): 0.321
- solubility (mole fraction) (in THF, 293.15 K): 0.335
- solubility (mole fraction) (in THF, 298.15 K): 0.351
- solubility (mole fraction) (in THF, 303.15 K): 0.367
- solubility (mole fraction) (in THF, 308.15 K): 0.382
- solubility (mole fraction) (in acetone, 288.15 K): 0.243
- solubility (mole fraction) (in acetone, 293.15 K): 0.261
- solubility (mole fraction) (in acetone, 298.15 K): 0.28
- solubility (mole fraction) (in acetone, 303.15 K): 0.301
- solubility (mole fraction) (in acetone, 308.15 K): 0.321
- solubility (mole fraction) (in acetonitrile, 288.15 K): 0.0874
- solubility (mole fraction) (in acetonitrile, 293.15 K): 0.109
- solubility (mole fraction) (in acetonitrile, 298.15 K): 0.136
- solubility (mole fraction) (in acetonitrile, 303.15 K): 0.168
- solubility (mole fraction) (in acetonitrile, 308.15 K): 0.204
- solubility (mole fraction) (in dichloromethane, 288.15 K): 0.321
- solubility (mole fraction) (in dichloromethane, 293.15 K): 0.34
- solubility (mole fraction) (in dichloromethane, 298.15 K): 0.358
- solubility (mole fraction) (in dichloromethane, 303.15 K): 0.379
- solubility (mole fraction) (in dichloromethane, 308.15 K): 0.4
- solubility (mole fraction) (in ethanol, 288.15 K): 0.122
- solubility (mole fraction) (in ethanol, 293.15 K): 0.144
- solubility (mole fraction) (in ethanol, 298.15 K): 0.172
- solubility (mole fraction) (in ethanol, 303.15 K): 0.203
- solubility (mole fraction) (in ethanol, 308.15 K): 0.242
- solubility (mole fraction) (in ethyl acetate, 288.15 K): 0.231
- solubility (mole fraction) (in ethyl acetate, 293.15 K): 0.251
- solubility (mole fraction) (in ethyl acetate, 298.15 K): 0.272
- solubility (mole fraction) (in ethyl acetate, 303.15 K): 0.297
- solubility (mole fraction) (in ethyl acetate, 308.15 K): 0.321
- solubility (mole fraction) (in isopropanol, 288.15 K): 0.0849
- solubility (mole fraction) (in isopropanol, 293.15 K): 0.105
- solubility (mole fraction) (in isopropanol, 298.15 K): 0.125
- solubility (mole fraction) (in isopropanol, 303.15 K): 0.152
- solubility (mole fraction) (in isopropanol, 308.15 K): 0.184
- solubility (mole fraction) (in methanol, 288.15 K): 0.176
- solubility (mole fraction) (in methanol, 293.15 K): 0.195
- solubility (mole fraction) (in methanol, 298.15 K): 0.214
- solubility (mole fraction) (in methanol, 303.15 K): 0.236
- solubility (mole fraction) (in methanol, 308.15 K): 0.259
- solubility (mole fraction) (in n-butanol, 288.15 K): 0.113
- solubility (mole fraction) (in n-butanol, 293.15 K): 0.135
- solubility (mole fraction) (in n-butanol, 298.15 K): 0.159
- solubility (mole fraction) (in n-butanol, 303.15 K): 0.185
- solubility (mole fraction) (in n-butanol, 308.15 K): 0.218
- solubility (mole fraction) (in n-propanol, 288.15 K): 0.12
- solubility (mole fraction) (in n-propanol, 293.15 K): 0.142
- solubility (mole fraction) (in n-propanol, 298.15 K): 0.164
- solubility (mole fraction) (in n-propanol, 303.15 K): 0.191
- solubility (mole fraction) (in n-propanol, 308.15 K): 0.222
- solubility (mole fraction) (in propylene glycol, 288.15 K): 0.0278
- solubility (mole fraction) (in propylene glycol, 293.15 K): 0.031
- solubility (mole fraction) (in propylene glycol, 298.15 K): 0.0343
- solubility (mole fraction) (in propylene glycol, 303.15 K): 0.0384
- solubility (mole fraction) (in propylene glycol, 308.15 K): 0.0424
- solubility (mole fraction) (in transcutol, 288.15 K): 0.218
- solubility (mole fraction) (in transcutol, 293.15 K): 0.233
- solubility (mole fraction) (in transcutol, 298.15 K): 0.247
- solubility (mole fraction) (in transcutol, 303.15 K): 0.262
- solubility (mole fraction) (in transcutol, 308.15 K): 0.276
- solubility (mole fraction) (in water, 288.15 K): 1.08e-06
- solubility (mole fraction) (in water, 293.15 K): 1.4e-06
- solubility (mole fraction) (in water, 298.15 K): 1.77e-06
- solubility (mole fraction) (in water, 303.15 K): 2.29e-06
- solubility (mole fraction) (in water, 308.15 K): 2.91e-06
